Test: Deuterium/hydrogen (D/H) exchange in deuterium-enriched dBET1 in PBS (HPLC/UV and LC/MS)
Assay type: physicochemical
Conditions: PBS pH 7.4, 25° C.
Description: In order to evaluate the stability against racemization provided by deuterium enrichment at the racemizable chiral center of the glutarimide portion of dBET1, a sample of racemic, deuterium-enriched dBET1 from Example 1 (i.e., D-dBET1 from Example 1) was incubated in PBS (pH=7.4) at 25° C. in the presence of ethyl paraben as an internal standard. A 20 μL solution of racemic, deuterium-enriched dBET1 (D-dBET1), aliquoted from 21.6 mg dissolved in 1 mL DMSO, was added to 4 mL of PBS (pH=7.4). The reaction was performed in duplicate. Aliquots were taken out at preset times and quenched with methanol in the presence of acetic acid (250 μL aliquot quenched with 500 μL 5% (v/v) acetic acid in methanol). The samples were analyzed by HPLC/UV (10 μL injection) and LC/MS (1 μL injection) using a reverse-phase column.
Since the reaction is performed in an achiral medium, the kinetics of D/H exchange will be independent of the chirality of the starting material. As a result, separation of the enantiomers of D-dBET1 prior to the stability study is not required.
A change in the ratio is expected if D/H exchange is observed since, for example, a peak at M+2, where M is the mass of the mono-deuterated isotopomer of dBET1, would by D/H exchange disappear and give a corresponding peak at M+1. Similarly, M+3 would give M+2, etc.

half-life at 0.107 mg/mL: > 24 h | change of mass spectral isotopic distribution as a function of incubation time (up to 24h, LC/MS): did not change significantly
SMILES: [2H]C1(N2C(=O)c3cccc(OCC(=O)NCCCCNC(=O)C[C@@H]4N=C(c5ccc(Cl)cc5)c5c(sc(C)c5C)-n5c(C)nnc54)c3C2=O)CCC(=O)NC1=O (mixture of isomers) [D-dBET1]
area of chromatography peak normalized to internal standard (UV analysis) (ethyl paraben internal standard): decreased as a function of the incubation time
